Assay results taken from US11633415B2, “Compounds and methods useful for treating or preventing cancers” (priority 2017, dated 2023).
Where two headings read alike, the source gives them in different places.

Legend:
[1] = target: GST-tagged full-length human CK1α (Homo sapiens (Human), UniProt P48729); assay: Kinase enzymatic assay, mobility shift on LabChip system (AC50); type: biochemical; settings: mean AC50; 5 μM ATP; 1 μM Profiler Pro FL-Peptide 16 substrate
Experimental: (§1) Enzymatic assays were performed using a mobility shift assay on the LabChip system. Purified kinase protein was incubated with ATP, substrate, and assay buffer (20 mM Hepes—pH 7.5; 5 mM MgCl2, and 0.01% Triton X-100). The assay reaction was initiated with 5 μM ATP and with each compound present. Compounds were tested at the KM,ATP for the protein target (GST-tagged full-length human CK1α, available from Carna Biosciences, Japan) or over a range of ATP concentrations between 5 μM and 9 μM. […] AC50 values were determined using phosphorylated and unphosphorylated substrates.

[2] = system: colorectal carcinoma cell line HT29; assay: Cell viability assay, HT29; type: cell-based; settings: Homo sapiens, HT-29; HT29, 72 hours from plating (48 hours from compound administration)
Experimental: Cell viability assays were conducted against colorectal carcinoma cell line HT29. Cells were plated in wells and at 24 hours after plating, compounds were added to determine their effect on cell viability at various dosages. After 48 hours from compound administration, the cell viability was determined and the IC50 values were calculated. […] FIG. 4B illustrates the results of another cell viability measurement and IC50 value for Compound 1 assessed by ATP abundance on HT29 at 5 days.

CSNK1A1 = CSNK1A1 (Homo sapiens (Human), UniProt P48729); assay: Kinase enzymatic IC50 (Carna Biosciences mobility shift assay); type: biochemical
Experimental: as §1

[3] = Table 1, CSNK1A1 inhibitors, read-out: IC50

Chain of GST-tagged full-length human CK1α (P48729 whole entry): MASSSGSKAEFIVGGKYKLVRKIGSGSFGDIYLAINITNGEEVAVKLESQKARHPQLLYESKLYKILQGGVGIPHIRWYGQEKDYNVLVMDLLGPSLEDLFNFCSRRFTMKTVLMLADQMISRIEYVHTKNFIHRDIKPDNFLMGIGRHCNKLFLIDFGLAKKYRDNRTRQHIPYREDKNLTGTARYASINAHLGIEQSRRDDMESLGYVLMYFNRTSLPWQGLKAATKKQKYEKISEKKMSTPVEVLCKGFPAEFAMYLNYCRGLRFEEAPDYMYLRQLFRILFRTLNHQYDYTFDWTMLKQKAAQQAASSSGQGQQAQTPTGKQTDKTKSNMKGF
Chain of CSNK1A1 (P48729 whole entry): as above

CCC(CC)COC(=O)C(C#N)c1nc2ccccc2nc1N1CCNC(C(C)C)C1 (centres unmarked)
AC50 [1]: 1.39 µM

CCC(CC)COC(=O)C(C#N)c1nc2ccccc2nc1N1CCNC(Cc2ccccc2)C1 (centres unmarked)
AC50 [1]: 1.27 µM

N#CC(C(=O)OCC1CCCCCC1)c1nc2ccccc2nc1N1CCNCC1 (centres unmarked)
AC50 [1]: 0.355 µM

CN1CCN(c2nc3ccccc3nc2C(C#N)C(=O)OCC2CCCCC2)CC1 (centres unmarked)
AC50 [1]: 0.029 µM

CCC(CC)COC(=O)C(C#N)c1nc2ccccc2nc1N1CCNC(C)(C)C1 (centres unmarked)
AC50 [1]: 0.159 µM | IC50 [2]: 2.13 µM

CC(C)COC(=O)C(C#N)c1nc2ccccc2nc1N1CCC(C(N)=O)CC1 (centres unmarked)
AC50 [1]: 4.64 µM

N#CC(C(=O)OCc1ccncc1)c1nc2ccccc2nc1N1CCNCC1 (centres unmarked)
AC50 [1]: 0.468 µM

N#CC(C(=O)OCC1CCCC1)c1nc2ccccc2nc1N1CCNCC1 (centres unmarked)
AC50 [1]: 0.138 µM

CCC(CC)COC(=O)C(C#N)c1nc2ccccc2nc1N1CCNC(c2ccccc2)C1 (centres unmarked)
AC50 [1]: 2.22 µM

CCC(CC)COC(=O)C(C#N)c1nc2ccccc2nc1N1CCN[C@@H](C)C1 (some centres unmarked)
AC50 [1]: 1.22 µM

CCC(CC)COC(=O)C(C#N)c1nc2ccccc2nc1N1CCNC(CC)C1 (centres unmarked)
AC50 [1]: 0.958 µM

CCC(CC)COC(=O)C(C#N)c1nc2ccccc2nc1N1CCNC(CO)C1 (centres unmarked)
AC50 [1]: 0.517 µM

CN1CCN(c2nc3ccccc3nc2C(C#N)C(=O)OCc2ccccc2)CC1 (centres unmarked)
IC50 [2]: 56.8 µM

N#CC(C(=O)OCC1CCCCC1)c1nccnc1N1CCNCC1 (centres unmarked)
AC50 [1]: 0.304 µM

CCC(CC)COC(=O)C(C#N)c1nc2ccccc2nc1N1CCNC(C(=O)OC)C1 (centres unmarked)
AC50 [1]: 3.15 µM

CCC(CC)COC(=O)C(C#N)c1nc2ccccc2nc1NC1CCNCC1 (centres unmarked)
AC50 [1]: 1.33 µM

CCC(CC)COC(=O)C(C#N)c1nc2ccccc2nc1N1CCNC(=O)C1 (centres unmarked)
AC50 [1]: 1.74 µM

N#CC(C(=O)NCC1CCCCC1)c1nc2ccccc2nc1N1CCNCC1 (centres unmarked)
AC50 [1]: 1.76 µM

N#CC(C(=O)OCc1cccnc1)c1nc2ccccc2nc1N1CCNCC1 (centres unmarked)
AC50 [1]: 0.95 µM

N#CC(C(=O)OCC1CCCCC1)c1nc2ccccc2nc1N1CCNCC1 (centres unmarked)
AC50 [1]: 0.02 µM | IC50 [2]: 3.78 µM

CCC(CC)COC(=O)C(C#N)c1nc2ccccc2nc1N1CCNC(C)C1 (centres unmarked)
AC50 [1]: 0.434 µM

N#CC(C(=O)OCc1ccc2ccccc2c1)c1nc2ccccc2nc1N1CCNCC1 (centres unmarked)
AC50 [1]: 3.87 µM

CCC(CC)COC(=O)C(C#N)c1nc2ccccc2nc1N1CCN[C@H](C)C1 (some centres unmarked)
AC50 [1]: 0.333 µM

N#C/C(C(=O)OCC1CCCCC1)=C1/Nc2c(F)cccc2N=C1N1CCNCC1
AC50 [1]: 1.14 µM

N#C/C(C(=O)OCC1CCCCC1)=C1/Nc2ccc(F)cc2N=C1N1CCNCC1
AC50 [1]: 0.065 µM

N#C/C(C(=O)OCC1CCCCC1)=C1/Nc2ccc(-c3ccccc3F)cc2N=C1N1CCNCC1
AC50 [1]: 0.043 µM | IC50 [2]: 1.9 µM

N#C/C(C(=O)OCC1CCCCC1)=C1/Nc2ccc(-c3ccccc3O)cc2N=C1N1CCNCC1
AC50 [1]: 0.043 µM | IC50 [2]: 0.837 µM

N#C/C(C(=O)NCc1ccccc1)=C1/Nc2ccccc2N=C1N1CCNCC1
AC50 [1]: 1.92 µM

N#C/C(C(=O)OCC1CCCCC1)=C1/Nc2cccc(F)c2N=C1N1CCNCC1
AC50 [1]: 0.405 µM

N#C/C(C(=O)OCC1CCCCC1)=C1/Nc2ccc([N+](=O)[O-])cc2N=C1N1CCNCC1
AC50 [1]: 0.158 µM

N#C/C(C(=O)OCC1CCCCC1)=C1/Nc2ccc(-c3ccccc3)cc2N=C1N1CCNCC1
AC50 [1]: 0.27 µM

N#C/C(C(=O)OCC1CCCCC1)=C1\C=C(N2CCNCC2)N=CN1
AC50 [1]: 3.78 µM

N#C/C(C(=O)OCC1CCCCC1)=C1/Nc2ccc(-c3ccc(O)cc3)cc2N=C1N1CCNCC1
AC50 [1]: 0.013 µM | IC50 [2]: 0.472 µM

N#C/C(C(=O)OCC1CCCCC1)=C1/Nc2ccc(-c3cccc(F)c3)cc2N=C1N1CCNCC1
AC50 [1]: 0.108 µM | IC50 [2]: 2.31 µM

N#C/C(C(=O)OCC1CCCCC1)=C1/Nc2ccccc2C=C1N1CCNCC1
AC50 [1]: 1.33 µM

N#C/C(C(=O)OCC1CCCCC1)=C1/Nc2ccc(-c3ccc(F)cc3)cc2N=C1N1CCNCC1
AC50 [1]: 0.074 µM | IC50 [2]: 1.78 µM

N#C/C(C(=O)OCC1CCCCC1)=C1/NC=NC=C1N1CCNCC1
AC50 [1]: 0.467 µM

N#C/C(C(=O)CCC1CCCCC1)=C1/Nc2ccccc2N=C1N1CCNCC1
AC50 [1]: 3.15 µM

N#C/C(C(=O)OCC1CCCCC1)=C1/Nc2cc(N)ccc2N=C1N1CCNCC1
IC50 [2]: 3.71 µM

N#C/C(C(=O)OCC1CCCCC1)=C1/Nc2cccc(N)c2N=C1N1CCNCC1
IC50 [2]: 5.46 µM

CN1CCN(c2nc3ccccc3nc2C(C#N)C(=O)OCC(C)(C)C)CC1 (centres unmarked) [2,2 dimethyl propyl 2-cyano-2-(3-(4-(methylpiperazin-1-yl)quinoxalin-2-yl)acetate]
IC50 (CSNK1A1; [3]): 0.715 µM

CC(C)(C)COC(=O)C(C#N)c1nc2ccccc2nc1N1CCNCC1 (centres unmarked) [2,2 dimethyl propyl 2-cyano-2-(3-(4-(piperazin-1-yl)quinoxalin-2-yl)acetate]
IC50 (CSNK1A1; [3]): 0.21 µM

CCC(CC)COC(=O)C(C#N)c1nc2ccccc2nc1N1CCC(N)CC1 (centres unmarked) [2-ethylbutyl 2-cyano-2-(3-(4-(amino)piperidin-1-yl)quinoxalin-2-yl)acetate]
IC50 (CSNK1A1; [3]): 3.32 µM

CCC(CC)COC(=O)C(C#N)c1nc2ccccc2nc1N1CCC(CN)CC1 (centres unmarked) [2-ethylbutyl 2-cyano-2-(3-(4-(aminomethyl)piperidin-1-yl)quinoxalin-2-yl)acetate]
IC50 (CSNK1A1; [3]): 1.75 µM

CCC(CC)COC(=O)C(C#N)c1nc2ccccc2nc1N1CCN(C)CC1 (centres unmarked) [2-ethylbutyl 2-cyano-2-(3-(4-(methylpiperazin-1-yl)quinoxalin-2-yl)acetate]
IC50 (CSNK1A1; [3]): 0.399 µM

CCC(CC)COC(=O)C(C#N)c1nc2ccccc2nc1N1CCNCC1 (centres unmarked) [2-ethylbutyl 2-cyano-2-(3-(4-(piperazin-1-yl)quinoxalin-2-yl)acetate]
IC50 (CSNK1A1; [3]): 0.094 µM

N#CC(C(=O)OCc1ccccc1F)c1nc2ccccc2nc1N1CCNCC1 (centres unmarked) [2-fluorobenzyl 2-cyano-2-(3-(4-(piperazin-1-yl)quinoxalin-2-yl)acetate]
IC50 (CSNK1A1; [3]): 1.88 µM

N#CC(C(=O)OCc1cccc(N)c1)c1nc2ccccc2nc1N1CCNCC1 (centres unmarked) [3-aminobenzyl 2-cyano-2-(3-(4-(piperazin-1-yl)quinoxalin-2-yl)acetate]
IC50 (CSNK1A1; [3]): 4.13 µM

N#CC(C(=O)OCc1cccc(F)c1)c1nc2ccccc2nc1N1CCNCC1 (centres unmarked) [3-fluorobenzyl 2-cyano-2-(3-(4-(piperazin-1-yl)quinoxalin-2-yl)acetate]
IC50 (CSNK1A1; [3]): 0.268 µM

CN1CCN(c2nc3ccccc3nc2C(C#N)C(=O)OCc2ccc(F)cc2)CC1 (centres unmarked) [4-fluorobenzyl 2-cyano-2-(3-(4-(methylpiperazin-1-yl)quinoxalin-2-yl)acetate]
IC50 (CSNK1A1; [3]): 2.89 µM

N#CC(C(=O)OCc1ccc(F)cc1)c1nc2ccccc2nc1N1CCNCC1 (centres unmarked) [4-fluorobenzyl 2-cyano-2-(3-(4-(piperazin-1-yl)quinoxalin-2-yl)acetate]
IC50 (CSNK1A1; [3]): 1.29 µM

Nc1ncnc2c1c(COc1cccc(Cl)c1)nn2C1CCOCC1 [PF4800567, 3-(3-chloro-phenoxymethyl)-1-(tetrahydro-pyran-4-yl)-1H-pyrazolo[3,4-d]pyrimidin-4-ylamine, reference compound]
IC50 (CSNK1A1; [3]): 0.857 µM | IC50 (CSNK1A1; known inhibitors, background text (rounded Table 1 values), read-out: IC50 against CSNK1A1): 0.86 µM

N#CC(C(=O)OCc1ccccc1)c1nc2ccccc2nc1N1CCC(N)CC1 (centres unmarked) [benzyl 2-(3-(4-aminopiperidin-1-yl)quinoxalin-2-yl)-2-cyanoacetate]
IC50 (CSNK1A1; [3]): 1.89 µM

CNC1CCN(c2nc3ccccc3nc2C(C#N)C(=O)OCc2ccccc2)CC1 (centres unmarked) [benzyl 2-cyano-2-(3-(4-(methylamino)piperidin-1-yl)quinoxalin-2-yl)acetate]
IC50 (CSNK1A1; [3]): 4.39 µM

CCC(CC)COC(=O)C(C#N)c1nc2ccccc2nc1N1CCN(CC)CC1 (centres unmarked) [compound 3, 2-ethylbutyl 2-cyano-2-(3-(4-ethylpiperazin-1-yl)quinoxalin-2-yl)acetate]
IC50 (CSNK1A1; [3]): 5 µM

CN1CCN(c2nc3ccccc3nc2C(C#N)C(=O)OC2CCCCC2)CC1 (centres unmarked) [compound 4, cyclohexyl 2-cyano-2-(3-(4-methylpiperazin-1-yl)quinoxalin-2-yl)acetate]
IC50 (CSNK1A1; [3]): 3.18 µM

CN1CCN(c2nc3ccccc3nc2C(C#N)C(=O)OC2CCCCC2)CC1 (centres unmarked) [drawing 113]
AC50 [1]: 3.5 µM | IC50 [2]: 10000 µM

CC(C)(C)COC(=O)C(C#N)c1nc2ccccc2nc1N1CCNCC1 (centres unmarked) [drawing 115]
AC50 [1]: 0.151 µM

CN1CCN(c2nc3ccccc3nc2C(C#N)C(=O)OCC(C)(C)C)CC1 (centres unmarked) [drawing 117]
AC50 [1]: 0.822 µM

N#CC(C(=O)OCc1ccccc1F)c1nc2ccccc2nc1N1CCNCC1 (centres unmarked) [drawing 123]
AC50 [1]: 1.51 µM

CCC(CC)COC(=O)C(C#N)c1nc2ccccc2nc1N1CCC(CN)CC1 (centres unmarked) [drawing 124]
AC50 [1]: 2.6 µM

CCC(CC)COC(=O)C(C#N)c1nc2ccccc2nc1N1CCC(N)CC1 (centres unmarked) [drawing 126]
AC50 [1]: 4.22 µM

N#CC(C(=O)OCc1ccc(F)cc1)c1nc2ccccc2nc1N1CCNCC1 (centres unmarked) [drawing 129]
AC50 [1]: 2.73 µM

N#CC(C(=O)OCc1ccccc1)c1nc2ccccc2nc1N1CCC(N)CC1 (centres unmarked) [drawing 131]
AC50 [1]: 1.82 µM

N#CC(C(=O)OCc1cccc(F)c1)c1nc2ccccc2nc1N1CCNCC1 (centres unmarked) [drawing 134]
AC50 [1]: 0.353 µM

N#CC(C(=O)OCc1cccc(N)c1)c1nc2ccccc2nc1N1CCNCC1 (centres unmarked) [drawing 141]
AC50 [1]: 3.8 µM

CCC(CC)COC(=O)C(C#N)c1nc2ccccc2nc1N1CCN(C)CC1 (centres unmarked) [drawing 142]
AC50 [1]: 1.34 µM

CN1CCN(c2nc3ccccc3nc2C(C#N)C(=O)OCc2ccc(F)cc2)CC1 (centres unmarked) [drawing 146]
AC50 [1]: 2.04 µM

CNC1CCN(c2nc3ccccc3nc2C(C#N)C(=O)OCc2ccccc2)CC1 (centres unmarked) [drawing 147]
AC50 [1]: 3.65 µM

CCC(CC)COC(=O)C(C#N)c1nc2ccccc2nc1N1CCNCC1 (centres unmarked) [drawing 149]
AC50 [1]: 1.94 µM

CCN1CCN(c2nc3ccccc3nc2C(C#N)C(=O)OC2CCCCC2)CC1 (centres unmarked) [drawing 166]
IC50 [2]: 17.4 µM
